Results reported in publication PMC11785791, “Cryo-EM structure of the calcium-sensing receptor complexed with the kokumi substance γ-glutamyl-valyl-glycine” (Scientific Reports, 2025).
Residue numbers refer to the chain shown, from its start. *1 amine or outer side, *2 acyl side, *3 side chain or, on linkers, in order; H or OH if unused. Where a SMILES comes first, the peptide text is derived from it. γGlu = O=C(O)[CH](CCC(=O)[*:2])N[*:1]

Assays:
human CaSR R66A mutant = target: T1, human CaSR R66A mutant (Homo sapiens, UniProt P41180, R66A); assay: Calcium mobilization assay, CaSR R66A mutant; type: cell-based; conditions: for Response in calcium mobilization assay: in words; for EC50: mean ± s.e.m., n = 3
T1 construct: (N); expressed in transfected cells; host or cells: PEAKrapid cells (ATCC), pcDNA 3.1, transient transfection
T1 sequence (P41180 20-1078 R66A): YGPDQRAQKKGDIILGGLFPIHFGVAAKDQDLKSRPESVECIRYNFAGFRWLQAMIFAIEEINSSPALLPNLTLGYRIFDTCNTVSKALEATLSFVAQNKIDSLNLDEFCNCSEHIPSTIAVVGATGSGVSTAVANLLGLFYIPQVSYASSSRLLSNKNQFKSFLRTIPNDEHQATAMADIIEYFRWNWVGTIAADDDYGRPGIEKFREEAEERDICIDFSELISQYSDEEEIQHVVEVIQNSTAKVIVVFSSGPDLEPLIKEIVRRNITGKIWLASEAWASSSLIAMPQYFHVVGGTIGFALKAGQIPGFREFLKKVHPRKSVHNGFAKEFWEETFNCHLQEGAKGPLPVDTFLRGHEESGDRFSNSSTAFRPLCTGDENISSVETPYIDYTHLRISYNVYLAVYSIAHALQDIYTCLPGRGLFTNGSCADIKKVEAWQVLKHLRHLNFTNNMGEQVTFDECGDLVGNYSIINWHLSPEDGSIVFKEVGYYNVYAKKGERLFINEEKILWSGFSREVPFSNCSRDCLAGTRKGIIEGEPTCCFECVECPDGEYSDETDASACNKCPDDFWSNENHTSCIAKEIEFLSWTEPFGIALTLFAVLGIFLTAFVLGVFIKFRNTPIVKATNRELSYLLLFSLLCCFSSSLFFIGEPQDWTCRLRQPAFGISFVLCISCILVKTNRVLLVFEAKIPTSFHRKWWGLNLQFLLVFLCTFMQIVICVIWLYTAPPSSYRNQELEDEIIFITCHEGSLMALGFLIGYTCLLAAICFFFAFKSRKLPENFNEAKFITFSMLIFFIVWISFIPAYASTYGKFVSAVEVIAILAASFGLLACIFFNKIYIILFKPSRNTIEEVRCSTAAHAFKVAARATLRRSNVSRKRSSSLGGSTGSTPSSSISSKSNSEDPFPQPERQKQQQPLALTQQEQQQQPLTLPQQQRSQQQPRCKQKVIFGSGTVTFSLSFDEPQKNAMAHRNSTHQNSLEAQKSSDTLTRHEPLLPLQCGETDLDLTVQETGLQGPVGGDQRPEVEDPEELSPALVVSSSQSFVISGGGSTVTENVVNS
Experimental: (§1) The CaSR receptor responsiveness was assessed by using PEAK^rapid cells (ATCC, Manassas, VA, USA) transiently transfected with the receptor DNA by the method reported by Kitajima et al.[6]. Briefly, human CaSR or its mutant cDNA with a signal sequence (MAFYSCCWVLLALTWHTSA) followed by FLAG-tag (DYKDDDDK) were inserted into pcDNA 3.1 expression vectors in Opti-MEM I medium (Thermo Fisher Scientific), mixed with FuGENE 6 (Roche), and poured onto PEAK^rapid cells grown at a submaximal concentration. After culturing for 24 h in 96-well plates, the cells were incubated with 5 µM Calcium-5 solution (Calcium-5 assay kit, Molecular Devices) for 45–60 min, and measurements were performed using a plate reader (FDSS/µCELL, Hamamatsu Photonics, Shizuoka, Japan) and its associated software. The activation of CaSR expressed in cells increases the intracellular Ca^2+ concentration, which is measured using a Ca^2+-sensitive dye. The binding of Ca^2+ to the Ca^2+-sensitive dye increases dye fluorescence, with excitation at 485 nm and emission at 525 nm. Test compounds were dissolved and administered in the assay buffer (146 mM NaCl, 1 mM MgSO4, 20 mM HEPES, 1 mM CaCl2, 2.5 mM probenecid, and 1.39 mM glucose, pH 7.4). Transiently transfected cells were challenged with compounds and compared with the vehicle alone and/or mock-transfected cells. The concentration dependence of the fluorescence intensity (influx of Ca^2+) was analyzed using the plate reader at 1 s intervals for 180 s. For the dose–response curve calculations, peak fluorescence responses after the addition of compounds were corrected for, normalized to the background fluorescence (ΔF/F = –F − F0)/F0), and baseline noise was subtracted. Dose–response curves were calculated by non-linear regression using GraphPad PRISM 8.0.

human CaSR E297A mutant = target: T2, human CaSR E297A mutant (Homo sapiens, UniProt P41180, E297A); assay: Calcium mobilization assay, CaSR E297A mutant; type: cell-based; conditions: for Response in calcium mobilization assay: in words
T2 construct: (N); expressed in transfected cells; host or cells: PEAKrapid cells (ATCC), pcDNA 3.1, transient transfection
T2 sequence (P41180 20-1078 E297A): T1 sequence (P41180 20-1078 R66A) with A47R, E278A
Experimental: as §1

Row | Response in calcium mobilization assay (human CaSR R66A mutant; R66A mutant) | Response in calcium mobilization assay (human CaSR E297A mutant) | Emax (% of wild-type values) (human CaSR R66A mutant; R66A mutant) | EC50 (human CaSR R66A mutant; R66A mutant) [mM] | Emax (% of wild-type values) (human CaSR E297A mutant) | EC50 (human CaSR E297A mutant; mean ± s.e.m., n = 3) [mM] | SMILES | EC50 (human CaSR R66A mutant; R66A mutant, ND not detected) [mM] | Emax (human CaSR R66A mutant; read-out: Emax (% of wild-type values)) [%]
1 |  |  | 107.2 % of WT | 3.87 ± 0.5 | 86.0 % of WT | 6.58 ± 0.3 | [Ca+2].[Cl-].[Cl-] [CaCl2] |  | 
2 | no response | no response |  |  |  |  | CC(C)[C@H](NC(=O)CC[C@H](N)C(=O)O)C(=O)O [γ-EV, γ-glutamyl-valine] |  | 
3 | no response | no response |  |  |  |  | N[C@@H](Cc1ccc(O)cc1)C(=O)O [L-Tyr, L-tyrosine] |  | 

Row | SMILES | Response in calcium mobilization assay (human CaSR R66A mutant; R66A mutant) | Response in calcium mobilization assay (human CaSR E297A mutant) | Emax (% of wild-type values) (human CaSR R66A mutant; R66A mutant) | EC50 (human CaSR R66A mutant; R66A mutant) [mM] | Emax (% of wild-type values) (human CaSR E297A mutant) | EC50 (human CaSR E297A mutant; mean ± s.e.m., n = 3) [mM] | EC50 (human CaSR R66A mutant; R66A mutant, ND not detected) [mM] | Emax (human CaSR R66A mutant; read-out: Emax (% of wild-type values)) [%]
4 | CC(C)C(NC(=O)CCC(N)C(=O)O)C(=O)NCC(=O)O (stereo not drawn) [γ-EVG, γ-glutamyl-valyl-glycine] (γGlu-Val-Gly-OH; configuration not given here) | reduced its function compared to the wild-type | greatly reduced the response |  |  |  |  | 0.0189 ± 0.0005 | 53.6
